Experimental data from patent US6946458B2, “N-thiolated beta-lactams: novel antibacterial agents for methicillin-resistant Staphylococcus aureus” (University of South Florida, priority 1999, dated 2005).

Experiments:
Assay in all cases: Kirby-Bauer agar disk diffusion
Details in all cases: Table 3, 6-mm disks, 20 μg test compound, 24 hours
[1] = system: Staphylococcus epidermidis; format: cell-based
Protocol: (§1) In this study, a selection of N-methylthio-substituted β-lactams are examined for antimicrobial activity by the Kirby-Bauer disk diffusion method on agar plates. A variety of common Gram-positive and Gram-negative bacteria are tested, including clinical isolates of methicillin-resistant Staphylococcus aureus (MRSA).
(§2) Compound susceptibility measurements are obtained from agar disk diffusion experiments using 6-mm air-dried disks impregnated with 20 μg of the test compound. The values correspond to the average diameters in mm (triplicate experiments) for the zone of growth inhibition observed after 24 h. Staphylococcus aureus (ATCC 25923) and β-lactamase-producing strains of methicillin-resistant Staphylococcus aureus (labeled as MRSA USF652-659) are obtained from Lakeland Regional Medical Center, Lakeland, Fla. Staphylococcus epidermidis, Staphylococcus simulans, Staphylococcus simulans, and Microcossus luteus are clinical isolates from University of South Florida Medical Clinic. Nieserria gonnorhoeae (β-lactamase positive) is obtained from the Tampa Branch State Laboratory. PenG is penicillin G (potassium salt). Table 1 provides the zones of growth inhibition that are observed after 24 hours using the lactams of FIGS. 1A-1I (designated A-I, respectively).
(§3) Of particular interest is the ability of these compounds to retain their effectiveness against penicillin-resistant strains of Staphylococcus aureus, a dangerous hospital-borne pathogen which is becoming difficult to treat with conventional antibiotic therapy. The lactams were screened for antibacterial activity by disk diffusion on agar plates, and the resulting zones of bacterial growth inhibition measured (see Table 3; each lactam is designated by Figure number).
(§4) Table 3: Growth inhibition zones obtained from agar disk diffusion experiments using 6-mm air-dried disks impregnated with 20 μg of the test compound. The values correspond to the average diameters in mm for the zone of growth inhibition observed after 24 hours. Staphylococcus aureus and β-lactamase-producing strains of methicillin-resistant Staphylococcus aureus (labeled MRSA USF652-659) are obtained from a clinical testing laboratory at Lakeland Regional Medical Center, Lakeland, Fla.

[2] = system: Micrococcus luteus; format: cell-based
Protocol: as §1, §2, §3, §4

[3] = system: Staphylococcus aureus (ATCC 25923); format: cell-based
Protocol: as §1, §2, §3, §4

[4] = system: MRSA USF652; format: cell-based, Staphylococcus aureus
Protocol: as §1, §2, §3, §4
(§5) Those compounds were tested for bioactivity using the Kirby-Bauer test on agar plates.
(§6) Biological activity is enhanced against β-lactamase producing strains of methicillin-resistant Staphylococcus aureus (MRSA). With the lactam shown in FIG. 11A serving as a lead structure, a series of other C-4 substituted derivatives (FIGS. 11B-11I) were investigated herein. Table 5 lists microbiological data for β-lactams from Kirby-Bauer Disc Diffusion Test Results (with each lactam identified by Figure number).
(§7) Scheme I summarizes the synthesis of ester compounds 4. 4-Carboxy benzaldehyde (1) is coupled with the appropriate alcohol using DCC/DMAP, followed by reaction with p-anisidine, to give imines 2. Staudinger coupling of methoxyacetyl chloride with imine 2 gives N-aryl protected β-lactam 3. N-Dearylation of β-lactam 3 with ceric ammonium nitrate and methylthiolation with N-(methylthio)phthalimide affords N-methylthio β-lactams 4. These compounds are tested for antibacterial activity by the Kirby-Bauer method of disc diffusion on agar plates. [drawing 7]

[5] = system: MRSA USF654; format: cell-based, Staphylococcus aureus
Protocol: as §1, §2, §3, §4, §5, §6, §7

[6] = system: MRSA USF656; format: cell-based, Staphylococcus aureus
Protocol: as §1, §2, §3, §4, §5, §6, §7

[7] = system: MRSA USF658; format: cell-based, Staphylococcus aureus
Protocol: as §1, §2, §3, §4, §5, §6, §7

[8] = system: MRSA USF653; format: cell-based, Staphylococcus aureus
Protocol: as §1, §2, §3, §4, §5, §6, §7

[9] = system: MRSA USF657; format: cell-based, Staphylococcus aureus
Protocol: as §1, §2, §3, §4, §5, §6, §7

[10] = system: MRSA USF655; format: cell-based, Staphylococcus aureus
Protocol: as §1, §2, §3, §4, §5, §6, §7

[11] = system: MRSA USF659; format: cell-based, Staphylococcus aureus
Protocol: as §1, §2, §3, §4, §5, §6, §7

[12] = system: S. saprophyticus (ATCC 3552); format: cell-based, Staphylococcus saprophyticus
Protocol: as §1, §2, §3, §4

[13] = system: S. simulans (ATCC 11631); format: cell-based, Staphylococcus simulans
Protocol: as §1, §2, §3, §4

Row | SMILES | zone of growth inhibition, average diameter [1] [mm] | zone of growth inhibition, average diameter [2] [mm] | zone of growth inhibition, average diameter [3] [mm] | zone of growth inhibition, average diameter [4] [mm] | zone of growth inhibition, average diameter [5] [mm] | zone of growth inhibition, average diameter [6] [mm] | zone of growth inhibition, average diameter [7] [mm] | zone of growth inhibition, average diameter [8] [mm] | zone of growth inhibition, average diameter [9] [mm] | zone of growth inhibition, average diameter [10] [mm] | zone of growth inhibition, average diameter [11] [mm] | zone of growth inhibition, average diameter [12] [mm] | zone of growth inhibition, average diameter [13] [mm] | also measured
1 | COC1C(=O)N(SC)C1C#Cc1ccccc1 (racemic) [FIG. 2B] | 30 | 28 | 27 | 29 | 27 | 30 | 27 | 29 | 28 | 27 | 24 | 23 | 19 | 
2 | COC1C(=O)N(SC)C1C=Cc1ccccc1 (racemic) [FIG. 3A] |  |  |  |  |  |  |  |  |  |  |  |  |  | zone of growth inhibition, average diameter ([1]; listed as 3A): 12 mm; zone of growth inhibition, average diameter ([2]; listed as 3A): 11 mm; zone of growth inhibition, average diameter ([3]; listed as 3A): 10 mm; zone of growth inhibition, average diameter ([4]; listed as 3A): 10 mm; zone of growth inhibition, average diameter ([5]; listed as 3A): 12 mm; zone of growth inhibition, average diameter ([6]; listed as 3A): 13 mm; zone of growth inhibition, average diameter ([7]; listed as 3A): 10 mm; zone of growth inhibition, average diameter ([8]; listed as 3A): 18 mm; zone of growth inhibition, average diameter ([9]; listed as 3A): 11 mm; zone of growth inhibition, average diameter ([10]; listed as 3A): 12 mm; zone of growth inhibition, average diameter ([11]; listed as 3A): 10 mm; zone of growth inhibition, average diameter ([12]; listed as 3A): 14 mm; zone of growth inhibition, average diameter ([13]; listed as 3A): 9 mm
3 | COC1C(=O)N(SC)C1C=Cc1ccccc1 (racemic) [FIG. 3B] |  |  |  |  |  |  |  |  |  |  |  |  |  | zone of growth inhibition, average diameter ([1]; listed as 3B): 26 mm; zone of growth inhibition, average diameter ([2]; listed as 3B): 23 mm; zone of growth inhibition, average diameter ([3]; listed as 3B): 21 mm; zone of growth inhibition, average diameter ([4]; listed as 3B): 25 mm; zone of growth inhibition, average diameter ([5]; listed as 3B): 22 mm; zone of growth inhibition, average diameter ([6]; listed as 3B): 24 mm; zone of growth inhibition, average diameter ([7]; listed as 3B): 21 mm; zone of growth inhibition, average diameter ([8]; listed as 3B): 26 mm; zone of growth inhibition, average diameter ([9]; listed as 3B): 22 mm; zone of growth inhibition, average diameter ([10]; listed as 3B): 21 mm; zone of growth inhibition, average diameter ([11]; listed as 3B): 17 mm; zone of growth inhibition, average diameter ([12]; listed as 3B): 16 mm; zone of growth inhibition, average diameter ([13]; listed as 3B): 12 mm
4 | CSN1C(=O)C(OC(C)=O)C1C=Cc1ccccc1 (racemic) [FIG. 3C] | 19 | 17 | 15 | 18 | 16 | 17 | 16 | 18 | 16 | 18 | 15 | 12 | 10 | 
5 | CSN1C(=O)C(Oc2ccccc2)C1C=Cc1ccccc1 (racemic) [FIG. 3D] | 10 | 10 | 15 | 14 | 14 | 13 | 12 | 16 | 13 | 15 | 12 | 11 | 8 | 
6 | COC1C(=O)N(SC)C1CCc1ccccc1 (racemic) [FIG. 3E] | 12 | 20 | 16 | 18 | 17 | 17 | 15 | 20 | 14 | 15 | 15 | 9 | 9 | 
7 | CSN1C(=O)C(OC(C)=O)C1CCc1ccccc1 (racemic) [FIG. 3F] | 18 | 23 | 17 | 17 | 17 | 18 | 15 | 18 | 17 | 15 | 16 | 13 | 11 | 
8 | CSN1C(=O)C(Oc2ccccc2)C1CCc1ccccc1 (racemic) [FIG. 3G] | 12 | 17 | 14 | 14 | 13 | 13 | 12 | 12 | 12 | 11 | 12 | 10 | 8 | 
